Measured values: publication PMC10824666 (Nature Cancer, 2023)
Where two headings read alike, the source gives them in different places.

Columns and labels:
Assay in all cases: biochemical
Set-up in all cases: Eurofins DiscoverX kinase panel, competitive binding assay at 1 uM, percent of DMSO control
Settings in all cases: competitive binding, percent of DMSO control
INSR = INSR (Homo sapiens, UniProt P06213)
Description: (§1) Extended Data Fig. 3 In vitro characterization of potent and selective KIF18A inhibitors. a, KIF18A compounds (1 µM) were assessed across a panel of kinases (n = 96) by a competitive binding assay. Graph presented as percentage of control (POC); dashed line indicates POC value of 30 (n = 1 experiment). b, Tubulin polymerization analysis. Profile of KIF18A compounds (10 µM) relative to DMSO, paclitaxel (5 µM, tubulin stabilizer), or nocodazole (5 µM, tubulin destabilizer). Graphs presented as tubulin fluorescence signal at 440 nm expressed as arbitrary units (a.u.) versus time (min) with area-under-the-curve (AUC) values (n = 1 or 3 independent experiments). c, Mitotic spindle image analysis. […] Representative images were captured with x40 objective (scale bar = 10 µm) (n = 1 experiment). d-f, KIF18A compound effects on HeLa cells. d, Cells were treated for 96 h with DMSO or KIF18A compounds at the indicated concentrations. KIF18A compound concentration-response profiles presented as count relative to the percentage of DMSO control (POC) with count EC50 values (n = 2 independent experiments in duplicate). e, KIF18A protein localization in cells after treatment for 6 hours with DMSO or AM-1882 (0.05 µM). Cells stained to detect DNA, KIF18A, and centrin-3. Representative images of mitotic cells (n = 3 per group) were captured with x60 objective (scale bar = 5 µm) and graphs of line scan measurements were obtained for DNA, KIF18A, and centrin-3 channels expressed as fluorescence intensity (a.u.) versus distance (µm) (n = 1 experiment). f, Mitotic cell fate imaging analysis. HeLa Kyoto cells co-expressing α-tubulin-EGFP and H2B-mCherry proteins released from a G1S block in media containing DMSO or AM-1882 (0.2 µM). Analysis was performed on cells entering the first mitosis (n = 40 cells per group). Graph presented as time in mitosis (h) versus mitotic cell fate, either complete cell division (CCD) or death in mitosis (DiM). Classified cells exiting mitosis by the number of daughter cells and cell death in […] We screened a small-molecule library of diverse compounds for selective inhibitors of KIF18A MT-ATPase motor activity. Two compound hits were discovered that phenocopied the effects of KIF18A KD in cells; these hits are structurally distinct from the KIF18A inhibitor BTB-1 (refs. [27],[28]). […] However, the potency of the KIF18A inhibitors was unaffected by varying ATP and MT concentrations (Extended Data Fig. 2d). This supports our proposed model in which KIF18A inhibitors occupy an allosteric pocket formed by motor helices α4 and α6 close to the motor MT-binding surface. To screen for potential off-target interactions with essential mitotic kinases, three of the KIF18A compounds were profiled against a large panel of kinases. […] We next investigated whether our KIF18A inhibitors affected tubulin polymerization in vitro in the absence of the KIF18A motor. All four KIF18A compounds had tubulin-polymerization profiles similar to that of the DMSO control and distinct from those of the paclitaxel (MT stabilizer) and nocodazole (MT destabilizer) co

PKC ε = biological target: T1, PKC ε (Homo sapiens, UniProt Q02156)
T1 construct: gene PRKCE
T1 sequence (Q02156 1-737): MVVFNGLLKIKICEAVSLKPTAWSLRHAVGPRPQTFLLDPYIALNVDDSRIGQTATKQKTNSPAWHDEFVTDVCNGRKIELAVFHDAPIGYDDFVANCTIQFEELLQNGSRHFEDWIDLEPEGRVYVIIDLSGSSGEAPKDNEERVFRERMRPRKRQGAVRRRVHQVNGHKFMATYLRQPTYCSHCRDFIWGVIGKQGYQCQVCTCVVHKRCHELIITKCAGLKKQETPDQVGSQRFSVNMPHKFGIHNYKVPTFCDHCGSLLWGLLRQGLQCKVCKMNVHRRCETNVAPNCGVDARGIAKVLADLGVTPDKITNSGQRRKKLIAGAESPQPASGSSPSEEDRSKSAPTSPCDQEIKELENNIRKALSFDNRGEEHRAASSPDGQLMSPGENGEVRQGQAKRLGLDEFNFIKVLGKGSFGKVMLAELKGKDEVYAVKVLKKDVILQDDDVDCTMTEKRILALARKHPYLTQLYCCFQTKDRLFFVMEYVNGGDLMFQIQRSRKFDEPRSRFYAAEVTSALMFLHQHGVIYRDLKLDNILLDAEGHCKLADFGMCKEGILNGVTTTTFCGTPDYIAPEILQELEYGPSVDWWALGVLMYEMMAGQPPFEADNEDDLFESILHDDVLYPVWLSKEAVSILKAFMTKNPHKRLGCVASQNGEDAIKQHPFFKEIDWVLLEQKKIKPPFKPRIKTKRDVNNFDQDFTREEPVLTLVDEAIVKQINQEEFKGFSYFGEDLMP
Description: as §1

MARK1 = MARK1 (Homo sapiens, UniProt Q9P0L2)
Description: as §1

CAMK2D = CAMK2D (Homo sapiens, UniProt Q13557)
CAMK2D, sequence (Q13557 whole entry): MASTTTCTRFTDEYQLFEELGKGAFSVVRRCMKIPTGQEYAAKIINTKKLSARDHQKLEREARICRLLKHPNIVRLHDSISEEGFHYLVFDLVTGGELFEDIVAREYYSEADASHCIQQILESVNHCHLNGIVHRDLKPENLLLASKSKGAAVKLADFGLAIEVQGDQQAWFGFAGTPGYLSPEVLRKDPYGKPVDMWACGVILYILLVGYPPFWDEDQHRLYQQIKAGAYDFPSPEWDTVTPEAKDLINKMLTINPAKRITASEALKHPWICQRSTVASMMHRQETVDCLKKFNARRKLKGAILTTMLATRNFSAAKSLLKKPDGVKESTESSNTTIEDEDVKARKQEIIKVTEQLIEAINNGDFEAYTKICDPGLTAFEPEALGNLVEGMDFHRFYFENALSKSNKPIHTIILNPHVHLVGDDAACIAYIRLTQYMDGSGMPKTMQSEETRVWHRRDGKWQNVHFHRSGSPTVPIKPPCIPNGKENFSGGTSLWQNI
Description: as §1

SRC = SRC (Homo sapiens, UniProt P12931)
SRC, sequence (P12931 whole entry): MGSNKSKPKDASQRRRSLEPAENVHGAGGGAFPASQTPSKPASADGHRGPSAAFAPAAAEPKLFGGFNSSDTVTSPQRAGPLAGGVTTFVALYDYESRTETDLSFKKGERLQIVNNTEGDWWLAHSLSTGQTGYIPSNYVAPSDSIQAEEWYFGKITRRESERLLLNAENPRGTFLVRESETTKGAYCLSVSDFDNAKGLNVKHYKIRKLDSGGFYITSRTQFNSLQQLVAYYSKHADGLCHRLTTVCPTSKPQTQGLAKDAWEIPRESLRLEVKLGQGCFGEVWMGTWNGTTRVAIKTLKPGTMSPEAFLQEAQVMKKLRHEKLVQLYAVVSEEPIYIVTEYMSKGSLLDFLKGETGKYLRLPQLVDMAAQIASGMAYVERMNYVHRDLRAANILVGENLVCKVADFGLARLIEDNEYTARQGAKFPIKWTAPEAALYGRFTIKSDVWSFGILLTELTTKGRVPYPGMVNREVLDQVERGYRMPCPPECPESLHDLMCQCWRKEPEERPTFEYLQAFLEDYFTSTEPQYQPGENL
Description: as §1

PI3K alpha = biological target: T2, PI3K alpha (Homo sapiens, UniProt P42336)
T2 construct: gene PIK3CA
Description: as §1

CDK2 = CDK2 (Homo sapiens, UniProt P24941)
Description: as §1

ALK = ALK (Homo sapiens, UniProt Q9UM73)
ALK, sequence (Q9UM73 whole entry): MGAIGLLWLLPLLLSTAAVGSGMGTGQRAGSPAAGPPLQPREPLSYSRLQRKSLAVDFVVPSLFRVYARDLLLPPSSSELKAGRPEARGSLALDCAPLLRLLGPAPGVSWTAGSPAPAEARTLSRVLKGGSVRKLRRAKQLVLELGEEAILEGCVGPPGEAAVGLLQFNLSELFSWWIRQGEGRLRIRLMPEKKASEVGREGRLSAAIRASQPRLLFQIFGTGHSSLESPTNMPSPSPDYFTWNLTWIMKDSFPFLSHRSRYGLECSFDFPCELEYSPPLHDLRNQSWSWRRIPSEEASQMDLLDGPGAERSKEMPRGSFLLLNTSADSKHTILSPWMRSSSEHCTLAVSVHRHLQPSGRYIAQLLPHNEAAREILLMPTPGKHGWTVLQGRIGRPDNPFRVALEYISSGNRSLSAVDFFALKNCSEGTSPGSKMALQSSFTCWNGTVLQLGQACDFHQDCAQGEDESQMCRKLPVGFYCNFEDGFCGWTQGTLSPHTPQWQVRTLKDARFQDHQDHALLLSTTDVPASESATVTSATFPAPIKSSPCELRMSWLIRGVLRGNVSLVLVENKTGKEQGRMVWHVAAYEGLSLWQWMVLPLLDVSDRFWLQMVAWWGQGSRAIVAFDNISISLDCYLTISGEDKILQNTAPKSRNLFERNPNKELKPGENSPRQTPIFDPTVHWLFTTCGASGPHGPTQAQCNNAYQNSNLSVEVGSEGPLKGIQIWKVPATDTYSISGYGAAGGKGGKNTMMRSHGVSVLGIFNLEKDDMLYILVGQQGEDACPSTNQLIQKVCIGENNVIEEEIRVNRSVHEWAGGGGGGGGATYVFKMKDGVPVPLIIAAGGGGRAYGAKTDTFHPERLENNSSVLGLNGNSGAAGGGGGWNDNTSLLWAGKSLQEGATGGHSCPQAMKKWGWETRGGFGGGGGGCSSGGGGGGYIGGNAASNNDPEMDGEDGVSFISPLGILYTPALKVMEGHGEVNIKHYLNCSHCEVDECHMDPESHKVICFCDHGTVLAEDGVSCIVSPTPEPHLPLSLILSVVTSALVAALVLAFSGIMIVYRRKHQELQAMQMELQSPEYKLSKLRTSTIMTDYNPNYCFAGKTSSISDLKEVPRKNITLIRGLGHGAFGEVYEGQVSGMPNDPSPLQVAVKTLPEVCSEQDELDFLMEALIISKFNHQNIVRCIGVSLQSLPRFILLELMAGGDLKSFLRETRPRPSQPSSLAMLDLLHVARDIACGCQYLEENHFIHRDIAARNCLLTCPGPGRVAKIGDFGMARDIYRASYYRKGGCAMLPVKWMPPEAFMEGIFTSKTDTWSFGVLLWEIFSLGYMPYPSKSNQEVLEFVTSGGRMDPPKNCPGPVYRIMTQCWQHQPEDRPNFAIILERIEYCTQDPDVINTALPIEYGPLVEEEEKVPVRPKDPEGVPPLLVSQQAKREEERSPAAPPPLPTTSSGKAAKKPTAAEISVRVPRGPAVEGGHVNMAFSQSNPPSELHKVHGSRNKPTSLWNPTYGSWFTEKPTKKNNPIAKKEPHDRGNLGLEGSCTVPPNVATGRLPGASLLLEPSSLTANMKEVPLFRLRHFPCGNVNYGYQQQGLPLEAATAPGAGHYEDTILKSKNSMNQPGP
Description: as §1

Plk 1 = biological target: T3, Plk 1 (Homo sapiens, UniProt P53350)
T3 construct: gene PLK1
T3 sequence (P53350 whole entry): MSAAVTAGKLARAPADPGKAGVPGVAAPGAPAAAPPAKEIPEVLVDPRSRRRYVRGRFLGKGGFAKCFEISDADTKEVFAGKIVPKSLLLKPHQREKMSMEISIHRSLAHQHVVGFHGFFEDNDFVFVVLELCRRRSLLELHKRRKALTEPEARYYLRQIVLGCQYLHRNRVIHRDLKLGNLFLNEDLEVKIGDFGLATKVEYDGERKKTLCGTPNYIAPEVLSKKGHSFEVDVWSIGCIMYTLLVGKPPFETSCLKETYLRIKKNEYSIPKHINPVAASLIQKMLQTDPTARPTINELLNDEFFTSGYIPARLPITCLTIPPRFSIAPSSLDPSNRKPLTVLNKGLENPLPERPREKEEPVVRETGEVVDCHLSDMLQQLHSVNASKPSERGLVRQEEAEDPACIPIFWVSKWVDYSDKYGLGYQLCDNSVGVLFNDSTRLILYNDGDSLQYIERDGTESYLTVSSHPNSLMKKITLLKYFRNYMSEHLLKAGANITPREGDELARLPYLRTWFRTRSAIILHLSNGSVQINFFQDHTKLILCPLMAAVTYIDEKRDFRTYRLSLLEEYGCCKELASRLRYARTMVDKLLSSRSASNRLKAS
Description: as §1

[1] = read-out: Kinome Profiling performed by Eurofins DiscoverX / AM-1882, 1.0 µM / POC
[2] = read-out: Kinome Profiling performed by Eurofins DiscoverX / AM-0277, 1.0 µM / POC
[3] = read-out: Kinome Profiling performed by Eurofins DiscoverX / AM-5308, 1.0 µM / POC

INSR, sequence (P06213 whole entry): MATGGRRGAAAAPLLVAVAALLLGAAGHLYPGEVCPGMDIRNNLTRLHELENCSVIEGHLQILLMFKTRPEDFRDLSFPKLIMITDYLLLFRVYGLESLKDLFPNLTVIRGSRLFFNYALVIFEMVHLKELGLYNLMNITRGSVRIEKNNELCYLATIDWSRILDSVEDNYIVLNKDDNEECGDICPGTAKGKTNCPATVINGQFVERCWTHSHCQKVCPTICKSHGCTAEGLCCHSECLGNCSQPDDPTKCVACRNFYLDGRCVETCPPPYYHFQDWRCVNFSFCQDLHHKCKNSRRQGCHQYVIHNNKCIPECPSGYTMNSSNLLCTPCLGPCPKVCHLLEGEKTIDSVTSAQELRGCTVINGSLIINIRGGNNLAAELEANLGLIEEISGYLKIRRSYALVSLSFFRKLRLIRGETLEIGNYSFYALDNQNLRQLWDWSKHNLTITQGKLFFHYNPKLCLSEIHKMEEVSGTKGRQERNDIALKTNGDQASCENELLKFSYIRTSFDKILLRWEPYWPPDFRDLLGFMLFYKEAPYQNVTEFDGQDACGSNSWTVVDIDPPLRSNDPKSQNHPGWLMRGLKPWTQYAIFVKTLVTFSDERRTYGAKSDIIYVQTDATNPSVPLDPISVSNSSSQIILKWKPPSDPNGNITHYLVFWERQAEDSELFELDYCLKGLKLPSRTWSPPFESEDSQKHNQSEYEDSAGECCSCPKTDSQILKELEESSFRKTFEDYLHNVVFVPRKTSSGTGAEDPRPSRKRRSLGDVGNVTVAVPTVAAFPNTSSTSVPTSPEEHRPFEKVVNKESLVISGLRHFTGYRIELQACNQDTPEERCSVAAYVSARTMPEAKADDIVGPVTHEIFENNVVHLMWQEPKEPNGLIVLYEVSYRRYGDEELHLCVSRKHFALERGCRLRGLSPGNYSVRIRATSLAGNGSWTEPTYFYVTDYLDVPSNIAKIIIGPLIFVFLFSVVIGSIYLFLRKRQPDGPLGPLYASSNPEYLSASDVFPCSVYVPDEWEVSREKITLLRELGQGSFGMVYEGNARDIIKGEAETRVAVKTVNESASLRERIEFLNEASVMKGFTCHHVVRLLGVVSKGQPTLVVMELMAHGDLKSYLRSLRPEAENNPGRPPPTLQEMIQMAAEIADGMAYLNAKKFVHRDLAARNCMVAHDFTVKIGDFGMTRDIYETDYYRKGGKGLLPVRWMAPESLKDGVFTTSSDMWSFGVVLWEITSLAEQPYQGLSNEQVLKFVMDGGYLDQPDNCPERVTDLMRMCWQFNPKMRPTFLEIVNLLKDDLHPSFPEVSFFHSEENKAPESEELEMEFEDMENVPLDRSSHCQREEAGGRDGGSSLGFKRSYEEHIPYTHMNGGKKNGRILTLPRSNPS

Compound: CC(C)(C)NS(=O)(=O)c1cccc(NC(=O)c2ccc(S(=O)(=O)NC(C)(C)C)cc2N2CCC3(CC2)CC3)c1 [AM-1882]
- remaining activity at 1 µM (INSR; [1]): 100%
- remaining activity at 1 µM (PKC ε; [1]): 93%
- remaining activity at 1 µM (MARK1; [1]): 100%
- remaining activity at 1 µM (CAMK2D; [1]): 100%
- remaining activity at 1 µM (SRC; [1]): 98%
- remaining activity at 1 µM (PI3K alpha; [1]): 100%
- remaining activity at 1 µM (CDK2; [1]): 100%
- remaining activity at 1 µM (ALK; [1]): 81%
- remaining activity at 1 µM (Plk 1; [1]): 100%

Compound: CC(C)(CO)Nc1ccc(C(=O)Nc2cccc(S(=O)(=O)C3CCCC3)c2)c(N2CCC3(CC2)CC3)n1 [AM-0277]
- remaining activity at 1 µM (INSR; [2]): 100%
- remaining activity at 1 µM (PKC ε; [2]): 100%
- remaining activity at 1 µM (MARK1; [2]): 96%
- remaining activity at 1 µM (CAMK2D; [2]): 91%
- remaining activity at 1 µM (SRC; [2]): 89%
- remaining activity at 1 µM (PI3K alpha; [2]): 100%
- remaining activity at 1 µM (CDK2; [2]): 97%
- remaining activity at 1 µM (ALK; [2]): 100%
- remaining activity at 1 µM (Plk 1; [2]): 100%

Compound: C[C@@H]1CN(c2cccc(NC(=O)c3ccc(NS(=O)(=O)CCO)cc3N3CCC4(CC3)CC4)n2)CCO1 [AM-5308]
- remaining activity at 1 µM (INSR; [3]): 100%
- remaining activity at 1 µM (PKC ε; [3]): 97.5%
- remaining activity at 1 µM (MARK1; [3]): 98.5%
- remaining activity at 1 µM (CAMK2D; [3]): 58.5%
- remaining activity at 1 µM (SRC; [3]): 96.5%
- remaining activity at 1 µM (PI3K alpha; [3]): 91.5%
- remaining activity at 1 µM (CDK2; [3]): 94.5%
- remaining activity at 1 µM (ALK; [3]): 89%
- remaining activity at 1 µM (Plk 1; [3]): 95%
